Assay results published in ChEMBL document CHEMBL5291721, “A preclinical secondary pharmacology resource illuminates target-adverse drug reaction associations of marketed drugs” (Nat Commun, 2023).

Experiments:
[1] = target: T1, Muscarinic acetylcholine receptor M1 (Homo sapiens, UniProt P11229)
T1 sequence (P11229 whole entry): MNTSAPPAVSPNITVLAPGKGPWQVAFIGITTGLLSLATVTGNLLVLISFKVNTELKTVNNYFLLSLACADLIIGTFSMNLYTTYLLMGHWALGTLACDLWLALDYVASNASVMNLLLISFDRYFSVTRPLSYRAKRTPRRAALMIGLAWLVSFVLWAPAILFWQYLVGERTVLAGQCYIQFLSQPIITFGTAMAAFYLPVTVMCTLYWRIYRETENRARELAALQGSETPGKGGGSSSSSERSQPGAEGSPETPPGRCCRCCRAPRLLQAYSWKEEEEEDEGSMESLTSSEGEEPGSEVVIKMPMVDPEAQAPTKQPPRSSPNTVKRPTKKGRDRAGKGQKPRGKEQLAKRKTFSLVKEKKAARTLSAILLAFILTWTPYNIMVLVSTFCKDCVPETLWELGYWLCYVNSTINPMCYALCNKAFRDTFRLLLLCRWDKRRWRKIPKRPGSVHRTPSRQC

[2] = target: 5-hydroxytryptamine receptor 2A (Homo sapiens, UniProt P28223)
[3] = target: T2, Alpha-1A adrenergic receptor (Homo sapiens, UniProt P35348)
T2 sequence (P35348 whole entry): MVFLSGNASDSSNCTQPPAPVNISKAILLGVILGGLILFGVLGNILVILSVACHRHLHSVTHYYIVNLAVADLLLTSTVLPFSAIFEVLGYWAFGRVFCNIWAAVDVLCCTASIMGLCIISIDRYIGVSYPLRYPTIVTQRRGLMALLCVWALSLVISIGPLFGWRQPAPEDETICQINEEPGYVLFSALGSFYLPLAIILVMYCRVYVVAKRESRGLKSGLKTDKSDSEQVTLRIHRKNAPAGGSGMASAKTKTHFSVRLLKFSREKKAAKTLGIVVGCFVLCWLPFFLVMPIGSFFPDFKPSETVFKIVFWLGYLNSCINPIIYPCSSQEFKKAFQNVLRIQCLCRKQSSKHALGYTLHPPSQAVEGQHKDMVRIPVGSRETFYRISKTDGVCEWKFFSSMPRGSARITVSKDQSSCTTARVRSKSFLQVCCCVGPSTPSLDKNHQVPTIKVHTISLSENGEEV

[4] = target: T3, Muscarinic acetylcholine receptor M2 (Homo sapiens, UniProt P08172)
T3 sequence (P08172 whole entry): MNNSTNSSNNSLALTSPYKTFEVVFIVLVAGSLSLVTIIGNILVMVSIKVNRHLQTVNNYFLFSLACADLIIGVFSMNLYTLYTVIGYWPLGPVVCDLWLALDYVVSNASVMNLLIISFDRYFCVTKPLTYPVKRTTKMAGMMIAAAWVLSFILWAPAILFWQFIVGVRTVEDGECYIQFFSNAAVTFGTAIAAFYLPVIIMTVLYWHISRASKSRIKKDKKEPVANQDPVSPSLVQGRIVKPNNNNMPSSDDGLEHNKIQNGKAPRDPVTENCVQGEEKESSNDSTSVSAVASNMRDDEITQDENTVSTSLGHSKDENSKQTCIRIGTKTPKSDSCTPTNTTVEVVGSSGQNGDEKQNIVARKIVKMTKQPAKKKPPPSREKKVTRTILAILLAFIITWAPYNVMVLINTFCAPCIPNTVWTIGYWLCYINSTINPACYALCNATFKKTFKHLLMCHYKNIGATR

[5] = target: Hydroxycarboxylic acid receptor 2 (Homo sapiens, UniProt Q8TDS4)
[6] = target: 5-hydroxytryptamine receptor 6 (Homo sapiens, UniProt P50406)
[7] = target: Cannabinoid receptor 1 (Homo sapiens, UniProt P21554); type: functional
[8] = target: Histamine H1 receptor (Homo sapiens, UniProt P35367); type: functional, cell-based
[9] = target: D(1A) dopamine receptor (Homo sapiens, UniProt P21728); type: functional, cell-based
[10] = target: Gamma-aminobutyric acid type B receptor subunit 1 (Homo sapiens, UniProt Q9UBS5)
[11] = target: 5-hydroxytryptamine receptor 5A (Homo sapiens, UniProt P47898)
[12] = target: T4, Androgen receptor (Rattus norvegicus, UniProt P15207)
T4 sequence (P15207 whole entry): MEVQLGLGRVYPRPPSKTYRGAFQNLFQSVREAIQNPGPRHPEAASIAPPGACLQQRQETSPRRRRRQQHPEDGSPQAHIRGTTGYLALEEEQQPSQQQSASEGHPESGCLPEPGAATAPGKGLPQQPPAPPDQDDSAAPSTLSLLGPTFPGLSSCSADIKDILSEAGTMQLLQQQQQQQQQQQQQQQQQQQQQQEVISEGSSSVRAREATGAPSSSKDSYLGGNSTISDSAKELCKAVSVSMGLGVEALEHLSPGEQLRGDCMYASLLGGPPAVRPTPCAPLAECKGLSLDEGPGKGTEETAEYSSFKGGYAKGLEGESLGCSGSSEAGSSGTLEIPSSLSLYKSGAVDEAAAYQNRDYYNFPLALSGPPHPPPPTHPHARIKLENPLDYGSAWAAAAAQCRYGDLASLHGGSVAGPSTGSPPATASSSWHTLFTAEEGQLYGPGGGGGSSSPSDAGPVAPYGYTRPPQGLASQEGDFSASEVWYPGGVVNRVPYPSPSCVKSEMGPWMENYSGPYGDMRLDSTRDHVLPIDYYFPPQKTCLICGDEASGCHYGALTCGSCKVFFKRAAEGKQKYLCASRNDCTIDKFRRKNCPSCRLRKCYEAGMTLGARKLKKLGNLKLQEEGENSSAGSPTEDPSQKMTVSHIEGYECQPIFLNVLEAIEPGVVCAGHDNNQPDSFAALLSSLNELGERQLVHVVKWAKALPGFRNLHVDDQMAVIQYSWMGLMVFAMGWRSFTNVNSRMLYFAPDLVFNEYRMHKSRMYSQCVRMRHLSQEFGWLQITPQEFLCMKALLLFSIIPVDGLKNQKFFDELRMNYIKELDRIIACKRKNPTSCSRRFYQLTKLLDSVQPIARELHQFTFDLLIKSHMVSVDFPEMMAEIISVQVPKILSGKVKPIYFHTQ

[13] = target: Beta-1 adrenergic receptor (Homo sapiens, UniProt P08588); type: functional, cell-based
Also: assay procedure not described here.

5-hydroxytryptamine receptor 6, sequence (P50406 whole entry): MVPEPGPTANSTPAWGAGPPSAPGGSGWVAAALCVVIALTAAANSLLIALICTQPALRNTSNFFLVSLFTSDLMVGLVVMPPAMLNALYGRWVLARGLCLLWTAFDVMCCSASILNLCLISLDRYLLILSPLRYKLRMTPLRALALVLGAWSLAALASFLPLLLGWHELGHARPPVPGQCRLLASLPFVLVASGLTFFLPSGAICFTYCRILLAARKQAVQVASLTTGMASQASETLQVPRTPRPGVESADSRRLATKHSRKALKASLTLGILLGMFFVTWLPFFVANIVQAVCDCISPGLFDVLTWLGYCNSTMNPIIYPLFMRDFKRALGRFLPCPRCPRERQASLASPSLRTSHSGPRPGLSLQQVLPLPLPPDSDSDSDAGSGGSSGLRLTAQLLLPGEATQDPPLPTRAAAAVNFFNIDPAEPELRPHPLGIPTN
5-hydroxytryptamine receptor 2A, sequence (P28223 whole entry): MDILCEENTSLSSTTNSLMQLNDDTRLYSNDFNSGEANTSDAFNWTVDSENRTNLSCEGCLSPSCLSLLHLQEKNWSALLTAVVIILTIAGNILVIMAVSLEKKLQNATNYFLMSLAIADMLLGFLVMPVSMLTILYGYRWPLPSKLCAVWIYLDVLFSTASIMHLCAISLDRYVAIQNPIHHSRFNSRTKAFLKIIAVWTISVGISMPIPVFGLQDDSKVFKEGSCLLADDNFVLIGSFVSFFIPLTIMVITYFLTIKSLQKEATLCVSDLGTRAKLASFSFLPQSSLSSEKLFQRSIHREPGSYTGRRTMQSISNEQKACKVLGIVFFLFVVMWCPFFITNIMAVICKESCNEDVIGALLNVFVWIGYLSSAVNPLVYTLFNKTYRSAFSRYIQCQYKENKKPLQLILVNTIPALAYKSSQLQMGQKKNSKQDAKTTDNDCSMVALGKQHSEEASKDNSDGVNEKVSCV
Histamine H1 receptor, sequence (P35367 whole entry): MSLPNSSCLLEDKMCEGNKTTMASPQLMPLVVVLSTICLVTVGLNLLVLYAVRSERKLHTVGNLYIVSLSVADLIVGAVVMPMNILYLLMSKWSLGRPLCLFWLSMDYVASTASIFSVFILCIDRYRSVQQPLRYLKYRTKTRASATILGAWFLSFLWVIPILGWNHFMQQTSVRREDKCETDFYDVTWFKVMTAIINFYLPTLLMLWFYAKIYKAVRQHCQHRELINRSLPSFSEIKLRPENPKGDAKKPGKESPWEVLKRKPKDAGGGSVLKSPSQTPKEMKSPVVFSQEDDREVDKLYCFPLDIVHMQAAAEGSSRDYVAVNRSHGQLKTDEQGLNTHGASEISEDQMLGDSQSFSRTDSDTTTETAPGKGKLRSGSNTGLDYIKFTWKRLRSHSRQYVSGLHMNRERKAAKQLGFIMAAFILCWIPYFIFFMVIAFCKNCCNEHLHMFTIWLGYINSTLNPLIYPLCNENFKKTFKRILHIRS
Hydroxycarboxylic acid receptor 2, sequence (Q8TDS4 whole entry): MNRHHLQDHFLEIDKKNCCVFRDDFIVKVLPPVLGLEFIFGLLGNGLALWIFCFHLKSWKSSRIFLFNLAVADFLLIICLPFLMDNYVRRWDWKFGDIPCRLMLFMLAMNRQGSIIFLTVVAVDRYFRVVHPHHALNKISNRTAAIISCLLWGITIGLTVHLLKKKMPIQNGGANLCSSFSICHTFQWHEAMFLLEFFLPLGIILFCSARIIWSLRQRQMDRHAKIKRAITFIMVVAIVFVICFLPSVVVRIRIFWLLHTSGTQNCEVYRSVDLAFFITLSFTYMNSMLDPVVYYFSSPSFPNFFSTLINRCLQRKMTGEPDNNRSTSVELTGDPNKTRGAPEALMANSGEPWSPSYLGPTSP
Beta-1 adrenergic receptor, sequence (P08588 whole entry): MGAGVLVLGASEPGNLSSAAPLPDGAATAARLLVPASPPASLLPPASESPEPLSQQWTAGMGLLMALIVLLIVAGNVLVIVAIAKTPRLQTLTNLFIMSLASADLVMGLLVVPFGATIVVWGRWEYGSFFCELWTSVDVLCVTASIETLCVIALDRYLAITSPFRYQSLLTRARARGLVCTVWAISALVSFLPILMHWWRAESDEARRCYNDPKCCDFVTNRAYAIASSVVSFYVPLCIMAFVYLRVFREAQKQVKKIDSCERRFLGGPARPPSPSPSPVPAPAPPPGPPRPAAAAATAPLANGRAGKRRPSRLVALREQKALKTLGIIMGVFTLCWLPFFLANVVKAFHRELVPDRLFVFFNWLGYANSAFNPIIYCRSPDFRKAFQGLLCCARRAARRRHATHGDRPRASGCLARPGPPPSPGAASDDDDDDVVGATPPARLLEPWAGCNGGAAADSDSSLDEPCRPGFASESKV
D(1A) dopamine receptor, sequence (P21728 whole entry): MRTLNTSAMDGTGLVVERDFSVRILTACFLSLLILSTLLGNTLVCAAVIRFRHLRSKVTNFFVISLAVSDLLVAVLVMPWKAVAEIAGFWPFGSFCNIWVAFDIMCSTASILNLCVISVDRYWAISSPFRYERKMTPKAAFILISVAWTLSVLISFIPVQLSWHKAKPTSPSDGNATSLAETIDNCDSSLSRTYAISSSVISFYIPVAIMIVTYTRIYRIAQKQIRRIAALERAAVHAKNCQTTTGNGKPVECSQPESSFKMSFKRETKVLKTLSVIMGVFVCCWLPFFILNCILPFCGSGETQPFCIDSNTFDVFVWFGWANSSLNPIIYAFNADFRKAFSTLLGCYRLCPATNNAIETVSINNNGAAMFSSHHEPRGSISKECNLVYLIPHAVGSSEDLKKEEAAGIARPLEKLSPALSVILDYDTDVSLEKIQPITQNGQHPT
5-hydroxytryptamine receptor 5A, sequence (P47898 whole entry): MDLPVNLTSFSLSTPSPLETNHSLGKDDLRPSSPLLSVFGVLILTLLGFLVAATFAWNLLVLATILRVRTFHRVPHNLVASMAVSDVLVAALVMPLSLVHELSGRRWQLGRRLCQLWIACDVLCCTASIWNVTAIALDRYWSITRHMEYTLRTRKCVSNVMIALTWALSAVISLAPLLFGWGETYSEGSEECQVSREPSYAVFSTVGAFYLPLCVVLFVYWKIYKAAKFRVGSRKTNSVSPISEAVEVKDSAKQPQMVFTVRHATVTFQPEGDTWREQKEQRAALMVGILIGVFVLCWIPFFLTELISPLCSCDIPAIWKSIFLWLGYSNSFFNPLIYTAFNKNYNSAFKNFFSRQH
Cannabinoid receptor 1, sequence (P21554 whole entry): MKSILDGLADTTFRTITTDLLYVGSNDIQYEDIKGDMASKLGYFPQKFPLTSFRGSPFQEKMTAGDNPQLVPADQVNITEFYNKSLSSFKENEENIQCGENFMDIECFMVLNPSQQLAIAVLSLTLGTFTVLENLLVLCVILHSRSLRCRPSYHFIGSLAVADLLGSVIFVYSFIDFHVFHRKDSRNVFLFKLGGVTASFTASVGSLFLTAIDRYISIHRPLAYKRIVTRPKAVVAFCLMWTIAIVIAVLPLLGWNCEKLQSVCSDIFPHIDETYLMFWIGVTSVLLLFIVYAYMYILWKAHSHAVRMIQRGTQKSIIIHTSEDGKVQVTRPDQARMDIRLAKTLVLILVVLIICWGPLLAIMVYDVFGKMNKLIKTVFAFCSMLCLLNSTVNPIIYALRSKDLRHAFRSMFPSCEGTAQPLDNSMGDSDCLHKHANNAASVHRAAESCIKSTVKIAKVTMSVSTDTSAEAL
Gamma-aminobutyric acid type B receptor subunit 1, sequence (Q9UBS5 whole entry): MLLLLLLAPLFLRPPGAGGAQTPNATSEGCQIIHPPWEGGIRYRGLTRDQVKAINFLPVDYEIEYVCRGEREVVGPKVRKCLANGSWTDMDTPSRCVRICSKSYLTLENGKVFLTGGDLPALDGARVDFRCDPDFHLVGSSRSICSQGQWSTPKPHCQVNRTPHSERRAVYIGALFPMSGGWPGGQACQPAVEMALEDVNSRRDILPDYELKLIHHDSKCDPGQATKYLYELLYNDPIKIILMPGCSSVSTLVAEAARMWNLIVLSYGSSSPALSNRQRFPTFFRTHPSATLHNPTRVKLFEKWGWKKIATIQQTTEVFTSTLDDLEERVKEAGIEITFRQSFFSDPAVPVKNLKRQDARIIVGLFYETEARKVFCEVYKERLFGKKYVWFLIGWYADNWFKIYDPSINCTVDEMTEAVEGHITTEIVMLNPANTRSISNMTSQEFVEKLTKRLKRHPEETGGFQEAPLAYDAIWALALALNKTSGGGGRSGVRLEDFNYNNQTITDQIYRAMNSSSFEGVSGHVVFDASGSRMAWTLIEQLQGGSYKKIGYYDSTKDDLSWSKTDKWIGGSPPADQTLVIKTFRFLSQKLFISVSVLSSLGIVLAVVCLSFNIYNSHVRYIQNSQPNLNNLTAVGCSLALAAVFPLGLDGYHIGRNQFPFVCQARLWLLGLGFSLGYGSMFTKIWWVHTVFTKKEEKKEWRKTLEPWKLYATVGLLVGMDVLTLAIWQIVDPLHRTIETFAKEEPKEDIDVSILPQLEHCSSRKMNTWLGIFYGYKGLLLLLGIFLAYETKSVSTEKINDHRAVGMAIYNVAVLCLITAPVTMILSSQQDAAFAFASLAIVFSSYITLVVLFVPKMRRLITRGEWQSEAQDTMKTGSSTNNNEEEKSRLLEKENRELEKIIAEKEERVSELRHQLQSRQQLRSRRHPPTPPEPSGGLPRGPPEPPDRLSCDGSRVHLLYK

## C=CCCCCCCCCC(=O)O [UNDECYLENIC ACID]
[1]
  AC50: > 30 µM

## O=[N+]([O-])O[C@@H]1CO[C@H]2[C@@H]1OC[C@@H]2O [ISOSORBIDE MONONITRATE]
[2]
  AC50: > 10 µM
[3]
  AC50: > 10 µM
[4]
  AC50: > 10 µM
[5]
  AC50: > 10 µM

## O=[N+]([O-])c1cn2c(n1)OC[C@@H](OCc1ccc(OC(F)(F)F)cc1)C2 [PRETOMANID]
[2]
  AC50: > 10 µM
[6]
  AC50: > 10 µM
[3]
  AC50: > 10 µM
[7]
  AC50: > 10 µM

## Cc1oc(=O)oc1CN1CCN(c2cc3c(cc2F)c(=O)c(C(=O)O)c2n3C(C)S2)CC1 (stereo unspecified) [PRULIFLOXACIN]
[1]
  AC50: > 30 µM

## Cc1cc(C)c(NC(=O)CN(CC(=O)O)CC(=O)O)c(C)c1Br [MEBROFENIN]
[1]
  AC50: > 30 µM

## CN1CCN(C2=Nc3ccccc3Sc3ccc(Cl)cc32)CC1 [CLOTHIAPINE]
[8]
  AC50: 0.63 µM

## CC(=O)c1ccc2c(c1)N(CCCN(C)C)c1ccccc1S2 [ACEPROMAZINE]
[9]
  AC50: 1.4 µM

## C=CCN1C[C@H](C(=O)N(CCCN(C)C)C(=O)NCC)C[C@@H]2c3cccc4[nH]cc(c34)C[C@H]21 [CABERGOLINE]
[2]
  AC50: 0.0077 µM
[9]
  AC50: > 30 µM

## CCOc1ccccc1OCC1CNCCO1 (stereo unspecified) [VILOXAZINE]
[6]
  AC50: > 10 µM
[8]
  AC50: > 30 µM
[10]
  AC50: > 10 µM
[3]
  AC50: > 10 µM
[4]
  AC50: > 10 µM
[7]
  AC50: > 10 µM
[11]
  AC50: > 10 µM
[12]
  AC50: > 30 µM

## COc1ccc(C(=O)Nc2ccccc2CCC2CCCCN2C)cc1 (stereo unspecified) [ENCAINIDE]
[2]
  AC50: 0.103 µM
[8]
  AC50: > 30 µM
[3]
  AC50: > 10 µM
[4]
  AC50: > 10 µM
[5]
  AC50: > 10 µM

## CN(C)CCc1c[nH]c2ccc(C[C@H]3COC(=O)N3)cc12 [ZOLMITRIPTAN]
[8]
  AC50: > 30 µM

## CN(C)CC/C=C1\c2ccccc2CSc2ccccc21 [DOTHIEPIN]
[13]
  AC50: > 30 µM

## Nc1ccncc1N [AMIFAMPRIDINE]
[1]
  AC50: > 30 µM

## CCOc1ccc(Cc2cc([C@@H]3O[C@H](CO)[C@@H](O)[C@H](O)[C@H]3O)ccc2Cl)cc1 [DAPAGLIFLOZIN]
[4]
  AC50: > 10 µM
[12]
  AC50: > 30 µM

## COc1ccccc1N1CCN(CC(O)COc2cccc3ccccc23)CC1 (stereo unspecified) [NAFTOPIDIL]
[13]
  AC50: > 30 µM
[1]
  AC50: > 30 µM

## COc1cc2nc(N3CCN(C(=O)c4ccco4)CC3)nc(N)c2cc1OC [PRAZOSIN]
[4]
  AC50: 13.2 µM

## CCCCCNC(=N)N/N=C/c1c[nH]c2ccc(OC)cc12 [TEGASEROD]
[2]
  AC50: 0.174 µM
[6]
  AC50: 0.198 µM
[10]
  AC50: > 10 µM
[3]
  AC50: 0.267 µM
[11]
  AC50: 0.19 µM
